Assay [1] can be described thus: Inhibition of FGFR1 in human KG1 cells assessed as suppression of cell proliferation after 72 hrs by SRB/CCK-8 assay.
Assay [2] can be described thus: Inhibition of FGFR1 in human H1581 cells assessed as suppression of cell proliferation after 72 hrs by SRB/CCK-8 assay. (In general: Tetrazolium assays rely on reduction of a dye to a coloured formazan, in cell work by metabolically active cells.)
Assay [3] is described as follows: Inhibition of FGFR3 in human RT112 cells assessed as suppression of cell proliferation after 72 hrs by SRB/CCK-8 assay.

In general, IC50 refers to the concentration needed to halve the response being measured. Turning to `COc1cc(CCc2cc(Nc3ncnc4cc(N5CCN6CCCCC6C5)ccc34)n[nH]2)cc(OC)c1` (stereo not drawn), the IC50 is less than 0.2 nM in assay [1], less than 0.5 nM in assay [2] and less than 0.2 nM in assay [3].

These data come from BindingDB's records for doi:10.1016/j.bmcl.2016.04.028 (Chinese Academy of Sciences (Cas), 2016).
